Measurements published in patent US10947252B2, “Inhibitors of KEAP1-Nrf2 protein-protein interaction” (Janssen Pharmaceutica NV, priority 2018, dated 2021).

Test system: Glo-Response ARE-luc2P HEK293 cell line
Test: ARE luciferase reporter cell-based assay;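 further: luciferase signal tracks Nrf2 activation of the ARE once compounds disrupt KEAP1-Nrf2 binding, read with One-Glo reagent, DMSO serving as low control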
Conditions: Homo sapiens, HEK293, 24 h, average of results obtained

Compound	EC50 [nM]
Cc1ccc([C@@H](c2ccc3c(nnn3C3CC3)c2C)C(C)(C)C(=O)O)cc1CN1CC2(CCNCC2)Oc2ncccc2S1(=O)=O (single isomer, unassigned) [Example 648, (*S)-3-(1-Cyclopropyl-4-methyl-1H-benzo[d][1,2,3]triazol-5-yl)-3-(3-((1′,1′-dioxidospiro[piperidine-4,4′-pyrido[2,3-b][1,4,5]oxathiazepin]-2′(3′H)-yl)methyl)-4-methylphenyl)-2,2-dimethylpropanoic Acid]	1350
Cc1cnc2c(c1)S(=O)(=O)N(Cc1cc([C@@H](c3ccc4c(nnn4C4CC4)c3C)C(C)(C)C(=O)O)ccc1C)CC1(CNC1)O2 (single isomer, unassigned) [Example 646, (*S)-3-(1-Cyclopropyl-4-methyl-1H-benzo[d][1,2,3]triazol-5-yl)-2,2-dimethyl-3-(4-methyl-3-((8′-methyl-1′,1′-dioxidospiro[azetidine-3,4′-pyrido[2,3-b][1,4,5]oxathiazepin]-2′(3′H)-yl)methyl)phenyl)propanoic Acid]	66.7
Cc1ccc([C@@H](c2ccn3c(C(F)(F)F)nnc3c2C)C(C)(C)C(=O)O)cc1CN1CC2(CCOCC2)Oc2nc(NCCCO)ccc2S1(=O)=O (single isomer, unassigned) [Example 115, (*S)-3-(3-((7′-((3-Hydroxypropyl)amino)-1′,1′-dioxido-2,3,5,6-tetrahydrospiro[pyran-4,4′-pyrido[2,3-b][1,4,5]oxathiazepin]-2′(3′H)-yl)methyl)-4-methylphenyl)-2,2-dimethyl-3-(8-methyl-3-(trifluoromethyl)-[1,2,4[triazolo[4,3-a]pyridine-7-yl)propanoic Acid]	133
Cc1ccc([C@H](c2ccc3c(nnn3CC3CC3)c2C)C(C)(C)C(=O)O)cc1CN1CC2(CCOCC2)Oc2ncccc2S1(=O)=O (single isomer, unassigned) [Example 429, (R*)-3-(1-(cyclopropylmethyl)-4-methyl-1H-benzo[d][1,2,3]triazol-5-yl)-3-(3-((1′,1′-dioxido-2,3,5,6-tetrahydrospiro[pyran-4,4′-pyrido[2,3-b][1,4,5]oxathiazepin]-2′(3′H)-yl)methyl)-4-methylphenyl)-2,2-dimethylpropanoic Acid]	17800
Cc1ccc([C@@H](c2ccn3c(C(F)(F)F)nnc3c2C)C(C)C(=O)O)cc1CN1CC2(CCOCC2)Oc2ccc(F)cc2S1(=O)=O (single isomer, unassigned) [Example 416, (3S*)-3-(3-((8-fluoro-1,1-dioxido-2′,3′,5′,6′-tetrahydrospiro[benzo[b][1,4,5]oxathiazepine-4,4′-pyran]-2(3H)-yl)methyl)-4-methylphenyl)-2-methyl-3-(8-methyl-3-(trifluoromethyl)-[1,2,4]triazolo[4,3-a]pyridin-7-yl)propanoic Acid]	2.53
Cc1ccc([C@H](CC(=O)O)c2ccc3c(nnn3CC3CC3)c2C)cc1CN1C[C@]2(C)CCCN2c2ncccc2S1(=O)=O (relative stereo) [Example 12, (*S)-3-(1-(Cyclopropylmethyl)-4-methyl-1H-benzo[d][1,2,3]triazol-5-yl)-3-(4-methyl-3-(((*S)-7a-methyl-5,5-dioxido-7a,8,9,10-tetrahydropyrido[2,3-f]pyrrolo[2,1-d][1,2,5]thiadiazepin-6(7H)-yl)methyl)phenyl)propanoic Acid]	2.7
CCn1nnc2c(C)c([C@@H](CC(=O)O)c3ccc(C)c(CN4CC(C)(C)Oc5ccccc5S4(=O)=O)c3)ccc21 (single isomer, unassigned) [Example 158, (*S)-3-(3-((4,4-Dimethyl-1,1-dioxido-3,4-dihydro-2H-benzo[b][1,4,5]oxathiazepin-2-yl)methyl)-4-methylphenyl)-3-(1-ethyl-4-methyl-1H-benzo[d][1,2,3]triazol-5-yl)propanoic Acid]	6.2
Cc1cc2cc([C@H](c3ccc(C)c(CN4CC5(CC5)Oc5nc(OCCN6CCCCC6)c(C)cc5S4(=O)=O)c3)C(C)(C)C(=O)O)n(C)c2nn1 (single isomer, unassigned) [Example 351, (*R)-3-(3,7-Dimethyl-7H-pyrrolo[2,3-c]pyridazine-6-yl)-2,2-dimethyl-3-(4-methyl-3-((8′-methyl-1′,1′-dioxido-7′-(2-(piperidine-1-yl)-ethoxy)spiro[cyclopropane-1,4′-pyrido[2,3-b][1,4,5]oxathiazepin]-2′,(3′H)-yl)methyl)phenyl)propanoic Acid]	836
Cc1ccc([C@H](CC(=O)O)c2ccn3c(C(F)F)nnc3c2C)cc1CN1C[C@@H]2CCCCN2c2ncccc2S1(=O)=O (relative stereo) [Example 447, (*S)-3-(3-(Difluoromethyl)-8-methyl-[1,2,4]triazolo[4,3-a]pyridin-7-yl)-3-(3-(((*S)-5,5-dioxido-7,7a,8,9,10,11-hexahydro-6H-dipyrido[2,1-d:2′,3′-f][1,2,5]thiadiazepin-6-yl)methyl)-4-methylphenyl)propanoic Acid]	2.93
Cc1cnc2c(c1)S(=O)(=O)N(Cc1cc(C(c3ccn4c(C(F)(F)F)nnc4c3)C(C)(C)C(=O)O)ccc1C)CC1(CC1)O2 (stereo not shown) [Example 322, 2,2-Dimethyl-3-(4-methyl-3-((8′-methyl-1′,1′-dioxidospiro[cyclopropane-1,4′-pyrido[2,3-b][1,4,5]oxathiazepin]-2′(3′H)-yl)methyl)phenyl)-3-(3-(trifluoromethyl)-[1,2,4]triazolo[4,3-a]pyridin-7-yl)propanoic Acid]	22.4
Cc1ccc([C@H](c2ccn3c(C(F)(F)F)nnc3c2C)C(C)C(=O)O)nc1CN1C[C@@H]2CCCCN2c2ncc(F)cc2S1(=O)=O (relative stereo) [Example 506, (3*S)-3-(6-(((S)-3-fluoro-5,5-dioxido-7,7a,8,9,10,11-hexahydro-6H-dipyrido[2,1-d:2′,3′-f][1,2,5]thiadiazepin-6-yl)methyl)-5-methylpyridin-2-yl)-2-methyl-3-(8-methyl-3-(trifluoromethyl)-[1,2,4]triazolo[4,3-a]pyridin-7-yl)propanoic Acid]	7.83
CCn1nnc2c(C)c([C@H](CC(=O)O)c3ccc(C)c(CN4C[C@@H]5CCCN5c5ccccc5S4(=O)=O)c3)ccc21 (relative stereo) [Example 149, (*R)-3-[3-[(5,5-Dioxo-7a,8,9,10-tetrahydro-7H-pyrrolo[2,1-d][1,2,5]benzothiadiazepin-6-yl)methyl]-4-methyl-phenyl]-3-(1-ethyl-4-methyl-benzotriazol-5-yl)propanoic Acid]	250
Cc1cnc([C@H](c2ccn3c(C(F)F)nnc3c2C)C(C)(C)C(=O)O)cc1CN1CC2(CCOCC2)Oc2nc(OCCN3CCCCC3)c(C)cc2S1(=O)=O (single isomer, unassigned) [Example 641, (*R)-3-(3-(Difluoromethyl)-8-methyl-[1,2,4]triazolo[4,3-a]pyridin-7-yl)-2,2-dimethyl-3-(5-methyl-4-((8′-methyl-1′,1′-dioxido-7′-(2-(piperidin-1-yl)ethoxy)-2,3,5,6-tetrahydrospiro[pyran-4,4′-pyrido[2,3-b][1,4,5]oxathiazepin]-2′(3′H)-yl)methyl)pyridin-2-yl)propanoic Acid]	2290
